Our source for the opening of anthers values is US20240324531A1, “METHOD TO INCREASE POLLEN FERTILITY” (Keygene N.V., priority 2021, published 2024).

Entries after “also recorded” stand apart in the source; their conditions may differ.

For this assay, the system named is anthers of B. rapa x B. oleracea cross (F1). Put plainly: Opening of anthers after treating immature flower buds of the AC hybrid. To be noted: 20 nM; F1 of this cross normally does not form open anthers. The format is in vivo, Brassica rapa x Brassica oleracea interspecific hybrid. The source says: Alternatively or in addition, preferably in the provided first seed plant, at least about 2%, 4%, 6%, 8%, 10%, 15%, 20%, 25%, 30%, 35%, 40%, 45%, 50%, 55%, 60%, 65%, 70%, 75%, 80%, 85%, 90%, 95% or 100% of the anthers remain closed upon pollen maturation. Preferably, less than about 95%, 90%, 85%, 80%, 75%, 70%, 65%, 60%, 55%, 50%, 45%, 40%, 35%, 30%, 25%, 20%, 15%, 10%, 8%, 6%, 4%, 2% or less than about 1% of the anthers open upon pollen maturation.

`NC1=NC(=O)C(=Cc2ccc(O)cc2)S1` [Mirin, 2-Amino-5-[(4-hydroxyphenyl)methylene]-4(5H)-thiazolone]: the opening of anthers entry is recorded as “open anther; also recorded: opening of anthers”.
